What was measured:
[1] = molecular target: Dual serine/threonine and tyrosine protein kinase (Homo sapiens) (UniProt Q6XUX3); settings: Compound concentration 1000.0 nM
[2] = molecular target: LIM domain kinase 1 (Homo sapiens) (UniProt P53667); settings: Compound concentration 1000.0 nM
[3] = molecular target: High affinity nerve growth factor receptor (Homo sapiens) (UniProt P04629); settings: Compound concentration 1000.0 nM
[4] = molecular target: 5-hydroxytryptamine receptor 2B (Homo sapiens) (UniProt P41595); settings: Compound concentration 10.0 uM
[5] = molecular target: 5-hydroxytryptamine receptor 1A (Homo sapiens) (UniProt P08908); settings: Compound concentration 10.0 uM
[6] = molecular target: Serine/threonine-protein kinase 24 (Homo sapiens) (UniProt Q9Y6E0); settings: Compound concentration 1000.0 nM
[7] = molecular target: Myosin light chain kinase 2, skeletal/cardiac muscle (Homo sapiens) (UniProt Q9H1R3); settings: Compound concentration 1000.0 nM
[8] = molecular target: Serine/threonine-protein kinase 38 (Homo sapiens) (UniProt Q15208); settings: Compound concentration 1000.0 nM
[9] = molecular target: cAMP-dependent protein kinase catalytic subunit PRKX (Homo sapiens) (UniProt P51817); settings: Compound concentration 1000.0 nM
[10] = molecular target: Phosphatidylinositol 4,5-bisphosphate 3-kinase catalytic subunit delta isoform (Homo sapiens) (UniProt O00329); settings: Compound concentration 1000.0 nM
[11] = molecular target: Serine/threonine-protein kinase 25 (Homo sapiens) (UniProt O00506); settings: Compound concentration 1000.0 nM
[12] = molecular target: Glycogen synthase kinase-3 alpha (Homo sapiens) (UniProt P49840); settings: Compound concentration 1000.0 nM
[13] = molecular target: RAC-gamma serine/threonine-protein kinase (Homo sapiens) (UniProt Q9Y243); settings: Compound concentration 1000.0 nM
RAC-gamma serine/threonine-protein kinase (Homo sapiens), sequence (Q9Y243 whole entry): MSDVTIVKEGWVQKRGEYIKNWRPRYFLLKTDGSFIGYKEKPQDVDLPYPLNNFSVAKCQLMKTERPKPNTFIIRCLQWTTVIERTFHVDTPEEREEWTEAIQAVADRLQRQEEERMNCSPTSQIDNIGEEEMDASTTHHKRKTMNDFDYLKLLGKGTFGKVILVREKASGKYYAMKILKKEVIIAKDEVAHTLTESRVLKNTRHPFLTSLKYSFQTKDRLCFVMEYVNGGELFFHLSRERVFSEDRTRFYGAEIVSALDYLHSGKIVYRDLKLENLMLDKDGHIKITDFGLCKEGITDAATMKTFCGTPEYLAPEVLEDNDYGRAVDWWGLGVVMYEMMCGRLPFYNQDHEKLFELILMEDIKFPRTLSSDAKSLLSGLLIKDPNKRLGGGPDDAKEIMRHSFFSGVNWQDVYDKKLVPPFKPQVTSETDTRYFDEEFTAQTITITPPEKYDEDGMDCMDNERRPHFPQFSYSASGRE

[14] = molecular target: Cyclin-dependent kinase 3 (Homo sapiens) (UniProt Q00526); settings: Compound concentration 1000.0 nM
[15] = molecular target: Fibroblast growth factor receptor 3 (Homo sapiens) (UniProt P22607); settings: Compound concentration 1000.0 nM
[16] = tested on: Tyrosine-protein kinase ABL1 (Homo sapiens), P00519 [E255K]; settings: Compound concentration 1000.0 nM
[17] = molecular target: Rho-associated protein kinase 2 (Homo sapiens) (UniProt O75116); settings: Compound concentration 1000.0 nM
[18] = molecular target: Tyrosine-protein kinase ABL2 (Homo sapiens) (UniProt P42684); settings: Compound concentration 1000.0 nM
[19] = molecular target: Tyrosine-protein kinase BTK (Homo sapiens) (UniProt Q06187); settings: Compound concentration 1000.0 nM
[20] = molecular target: Serine/threonine-protein kinase 10 (Homo sapiens) (UniProt O94804); settings: Compound concentration 1000.0 nM
[21] = molecular target: Ribosomal protein S6 kinase alpha-4 (Homo sapiens) (UniProt O75676); settings: Compound concentration 1000.0 nM
[22] = molecular target: Dual specificity mitogen-activated protein kinase kinase 7 (Homo sapiens) (UniProt O14733); settings: Compound concentration 1000.0 nM
[23] = molecular target: Atypical kinase COQ8B, mitochondrial (Homo sapiens) (UniProt Q96D53); settings: Compound concentration 1000.0 nM
[24] = molecular target: Ephrin type-A receptor 5 (Homo sapiens) (UniProt P54756); settings: Compound concentration 1000.0 nM
[25] = molecular target: STE20-like serine/threonine-protein kinase (Homo sapiens) (UniProt Q9H2G2); settings: Compound concentration 1000.0 nM
[26] = molecular target: Dual specificity mitogen-activated protein kinase kinase 4 (Homo sapiens) (UniProt P45985); settings: Compound concentration 1000.0 nM
[27] = molecular target: Proto-oncogene tyrosine-protein kinase receptor Ret (Homo sapiens) (UniProt P07949); settings: Compound concentration 1000.0 nM
Proto-oncogene tyrosine-protein kinase receptor Ret (Homo sapiens), sequence (P07949 whole entry): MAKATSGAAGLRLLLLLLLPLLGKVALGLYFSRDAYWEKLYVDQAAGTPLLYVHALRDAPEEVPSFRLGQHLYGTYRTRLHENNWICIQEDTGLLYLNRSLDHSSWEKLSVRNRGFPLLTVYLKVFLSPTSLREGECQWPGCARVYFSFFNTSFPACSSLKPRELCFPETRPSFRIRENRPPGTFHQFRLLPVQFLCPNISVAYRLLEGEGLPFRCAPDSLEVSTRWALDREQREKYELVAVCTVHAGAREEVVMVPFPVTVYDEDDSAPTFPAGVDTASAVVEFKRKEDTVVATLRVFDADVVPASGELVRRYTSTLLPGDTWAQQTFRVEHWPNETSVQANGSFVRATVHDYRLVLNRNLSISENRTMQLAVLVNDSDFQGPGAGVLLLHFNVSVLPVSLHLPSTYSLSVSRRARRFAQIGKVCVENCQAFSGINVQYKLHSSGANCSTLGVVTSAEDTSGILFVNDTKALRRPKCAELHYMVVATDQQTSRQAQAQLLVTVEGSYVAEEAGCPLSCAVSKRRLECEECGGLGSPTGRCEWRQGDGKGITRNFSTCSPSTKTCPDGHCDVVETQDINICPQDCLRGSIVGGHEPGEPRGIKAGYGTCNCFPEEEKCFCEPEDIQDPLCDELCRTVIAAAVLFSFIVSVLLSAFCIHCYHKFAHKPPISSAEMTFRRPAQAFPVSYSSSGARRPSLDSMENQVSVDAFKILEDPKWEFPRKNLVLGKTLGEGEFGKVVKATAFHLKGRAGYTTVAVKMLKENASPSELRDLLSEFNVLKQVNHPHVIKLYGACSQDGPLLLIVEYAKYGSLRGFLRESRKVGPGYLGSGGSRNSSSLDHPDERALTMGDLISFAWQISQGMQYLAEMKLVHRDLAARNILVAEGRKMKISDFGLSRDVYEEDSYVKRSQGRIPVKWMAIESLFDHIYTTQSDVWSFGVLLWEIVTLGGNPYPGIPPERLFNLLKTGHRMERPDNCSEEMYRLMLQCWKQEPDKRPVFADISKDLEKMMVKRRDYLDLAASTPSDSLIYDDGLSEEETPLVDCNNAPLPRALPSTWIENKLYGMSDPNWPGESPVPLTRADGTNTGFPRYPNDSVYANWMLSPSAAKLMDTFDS

[28] = molecular target: Ribosomal protein S6 kinase alpha-3 (Homo sapiens) (UniProt P51812); settings: Compound concentration 1000.0 nM
[29] = molecular target: Homeodomain-interacting protein kinase 2 (Homo sapiens) (UniProt Q9H2X6); settings: Compound concentration 1000.0 nM
[30] = molecular target: Peripheral plasma membrane protein CASK (Homo sapiens) (UniProt O14936); settings: Compound concentration 1000.0 nM
[31] = molecular target: Atypical kinase COQ8A, mitochondrial (Homo sapiens) (UniProt Q8NI60); settings: Compound concentration 1000.0 nM
[32] = tested on: Phosphatidylinositol 4,5-bisphosphate 3-kinase catalytic subunit alpha isoform (Homo sapiens), P42336 [H1047Y]; settings: Compound concentration 1000.0 nM
[33] = molecular target: Maternal embryonic leucine zipper kinase (Homo sapiens) (UniProt Q14680); settings: Compound concentration 1000.0 nM
[34] = tested on: Epidermal growth factor receptor (Homo sapiens), P00533 [UNDEFINED MUTATION]; settings: Compound concentration 1000.0 nM
[35] = molecular target: Cyclin-dependent kinase 16 (Homo sapiens) (UniProt Q00536); settings: Compound concentration 1000.0 nM
[36] = molecular target: Myosin-IIIb (Homo sapiens) (UniProt Q8WXR4); settings: Compound concentration 1000.0 nM
Myosin-IIIb (Homo sapiens), sequence (Q8WXR4 whole entry): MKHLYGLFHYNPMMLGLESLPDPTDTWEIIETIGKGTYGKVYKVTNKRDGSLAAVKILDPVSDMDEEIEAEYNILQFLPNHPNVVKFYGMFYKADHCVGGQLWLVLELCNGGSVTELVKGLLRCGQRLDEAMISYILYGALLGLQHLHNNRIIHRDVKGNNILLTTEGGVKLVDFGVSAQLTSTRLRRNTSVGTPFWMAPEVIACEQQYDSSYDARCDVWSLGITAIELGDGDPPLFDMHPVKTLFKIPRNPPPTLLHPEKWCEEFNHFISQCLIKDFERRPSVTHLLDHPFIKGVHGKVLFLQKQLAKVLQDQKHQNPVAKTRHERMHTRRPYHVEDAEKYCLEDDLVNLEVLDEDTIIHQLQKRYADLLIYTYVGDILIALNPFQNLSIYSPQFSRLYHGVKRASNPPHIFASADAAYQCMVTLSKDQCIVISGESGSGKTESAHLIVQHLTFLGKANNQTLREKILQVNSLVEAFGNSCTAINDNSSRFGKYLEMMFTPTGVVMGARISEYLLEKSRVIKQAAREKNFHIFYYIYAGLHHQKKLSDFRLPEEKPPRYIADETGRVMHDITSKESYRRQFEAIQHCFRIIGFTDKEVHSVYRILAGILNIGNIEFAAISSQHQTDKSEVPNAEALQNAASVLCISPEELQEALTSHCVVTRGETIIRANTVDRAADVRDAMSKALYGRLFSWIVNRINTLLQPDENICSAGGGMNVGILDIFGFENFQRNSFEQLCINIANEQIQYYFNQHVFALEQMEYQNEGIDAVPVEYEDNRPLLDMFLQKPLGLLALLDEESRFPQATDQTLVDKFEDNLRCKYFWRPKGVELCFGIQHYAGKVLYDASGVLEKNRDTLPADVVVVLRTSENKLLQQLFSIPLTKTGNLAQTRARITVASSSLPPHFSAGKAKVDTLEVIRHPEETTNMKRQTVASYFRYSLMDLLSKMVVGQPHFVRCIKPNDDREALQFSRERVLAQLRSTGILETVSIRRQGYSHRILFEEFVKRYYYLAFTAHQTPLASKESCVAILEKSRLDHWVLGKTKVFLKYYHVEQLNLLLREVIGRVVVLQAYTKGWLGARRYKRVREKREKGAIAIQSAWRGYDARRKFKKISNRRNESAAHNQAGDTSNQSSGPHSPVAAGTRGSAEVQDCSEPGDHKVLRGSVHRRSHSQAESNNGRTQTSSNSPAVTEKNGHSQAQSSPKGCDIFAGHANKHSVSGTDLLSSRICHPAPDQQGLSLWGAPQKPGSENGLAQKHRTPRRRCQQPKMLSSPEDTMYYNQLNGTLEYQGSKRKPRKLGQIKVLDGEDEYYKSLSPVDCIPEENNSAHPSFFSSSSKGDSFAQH

[37] = molecular target: Activin receptor type-1 (Homo sapiens) (UniProt Q04771); settings: Compound concentration 1000.0 nM
Activin receptor type-1 (Homo sapiens), sequence (Q04771 whole entry): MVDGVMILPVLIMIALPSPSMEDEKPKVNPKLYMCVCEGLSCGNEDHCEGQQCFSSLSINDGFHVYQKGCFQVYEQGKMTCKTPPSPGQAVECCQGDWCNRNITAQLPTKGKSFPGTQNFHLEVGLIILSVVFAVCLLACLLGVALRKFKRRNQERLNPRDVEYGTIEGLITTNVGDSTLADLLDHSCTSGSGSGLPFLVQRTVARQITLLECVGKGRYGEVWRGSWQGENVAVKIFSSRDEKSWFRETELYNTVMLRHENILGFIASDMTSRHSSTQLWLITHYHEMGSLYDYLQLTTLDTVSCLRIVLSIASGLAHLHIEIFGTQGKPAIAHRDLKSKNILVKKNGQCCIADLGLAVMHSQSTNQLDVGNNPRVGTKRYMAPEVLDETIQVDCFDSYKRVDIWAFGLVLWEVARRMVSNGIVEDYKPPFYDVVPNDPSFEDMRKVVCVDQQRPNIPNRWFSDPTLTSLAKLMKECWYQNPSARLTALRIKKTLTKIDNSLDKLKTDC

[38] = molecular target: ALK tyrosine kinase receptor (Homo sapiens) (UniProt Q9UM73); settings: Compound concentration 1000.0 nM
[39] = molecular target: Proto-oncogene tyrosine-protein kinase ROS (Homo sapiens) (UniProt P08922); settings: Compound concentration 1000.0 nM
[40] = molecular target: SRSF protein kinase 1 (Homo sapiens) (UniProt Q96SB4); settings: Compound concentration 1000.0 nM
[41] = molecular target: TRAF2 and NCK-interacting protein kinase (Homo sapiens) (UniProt Q9UKE5); settings: Compound concentration 1000.0 nM
[42] = molecular target: Death-associated protein kinase 2 (Homo sapiens) (UniProt Q9UIK4); settings: Compound concentration 1000.0 nM
Death-associated protein kinase 2 (Homo sapiens), sequence (Q9UIK4 whole entry, looked up): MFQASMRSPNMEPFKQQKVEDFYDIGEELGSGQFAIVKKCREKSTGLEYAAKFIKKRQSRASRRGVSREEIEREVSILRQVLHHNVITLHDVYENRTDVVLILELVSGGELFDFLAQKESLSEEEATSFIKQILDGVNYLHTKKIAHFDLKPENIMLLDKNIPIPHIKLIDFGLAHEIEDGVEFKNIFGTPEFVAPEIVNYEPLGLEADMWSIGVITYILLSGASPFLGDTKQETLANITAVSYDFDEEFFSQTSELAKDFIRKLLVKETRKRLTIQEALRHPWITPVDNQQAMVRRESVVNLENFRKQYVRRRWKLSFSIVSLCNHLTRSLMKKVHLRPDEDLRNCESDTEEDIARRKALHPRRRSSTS

[43] = molecular target: Serine/threonine-protein kinase Chk1 (Homo sapiens) (UniProt O14757); settings: Compound concentration 1000.0 nM
[44] = molecular target: 5-hydroxytryptamine receptor 1D (Homo sapiens) (UniProt P28221); settings: Compound concentration 10.0 uM
5-hydroxytryptamine receptor 1D (Homo sapiens), sequence (P28221 whole entry): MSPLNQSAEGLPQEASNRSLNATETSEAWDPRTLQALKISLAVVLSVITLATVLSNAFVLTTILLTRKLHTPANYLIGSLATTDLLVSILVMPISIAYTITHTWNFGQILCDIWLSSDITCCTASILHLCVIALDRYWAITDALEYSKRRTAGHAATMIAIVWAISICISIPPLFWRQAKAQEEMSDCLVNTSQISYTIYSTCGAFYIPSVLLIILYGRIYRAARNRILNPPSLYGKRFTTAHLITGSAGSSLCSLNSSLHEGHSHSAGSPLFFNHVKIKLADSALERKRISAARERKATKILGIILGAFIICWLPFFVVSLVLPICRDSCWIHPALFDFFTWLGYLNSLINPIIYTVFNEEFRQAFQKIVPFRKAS

[45] = molecular target: Tyrosine-protein kinase Lck (Homo sapiens) (UniProt P06239); settings: Compound concentration 1000.0 nM

High affinity nerve growth factor receptor (Homo sapiens), sequence (P04629 33-796 limits assumed): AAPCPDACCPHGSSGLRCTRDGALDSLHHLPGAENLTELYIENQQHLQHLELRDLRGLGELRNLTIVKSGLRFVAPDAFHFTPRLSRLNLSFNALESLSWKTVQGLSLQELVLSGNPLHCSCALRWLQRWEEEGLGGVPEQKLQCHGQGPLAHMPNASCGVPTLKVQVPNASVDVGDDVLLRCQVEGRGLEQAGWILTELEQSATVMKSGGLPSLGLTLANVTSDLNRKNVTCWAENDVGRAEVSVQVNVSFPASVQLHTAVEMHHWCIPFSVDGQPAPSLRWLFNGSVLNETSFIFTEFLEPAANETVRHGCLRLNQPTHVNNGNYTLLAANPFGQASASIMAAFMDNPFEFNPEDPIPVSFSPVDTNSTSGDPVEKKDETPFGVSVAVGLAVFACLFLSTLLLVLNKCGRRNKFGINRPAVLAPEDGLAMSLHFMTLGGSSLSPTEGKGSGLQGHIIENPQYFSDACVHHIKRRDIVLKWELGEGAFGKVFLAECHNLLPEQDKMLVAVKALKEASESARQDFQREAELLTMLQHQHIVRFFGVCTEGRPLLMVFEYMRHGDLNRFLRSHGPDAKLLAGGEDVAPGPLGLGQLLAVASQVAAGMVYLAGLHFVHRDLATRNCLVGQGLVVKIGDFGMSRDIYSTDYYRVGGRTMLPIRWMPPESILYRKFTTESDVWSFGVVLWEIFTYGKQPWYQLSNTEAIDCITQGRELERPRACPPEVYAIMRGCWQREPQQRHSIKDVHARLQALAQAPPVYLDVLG

CC(=O)C1=C(C)N(c2cccc(C(F)(F)F)c2)C(=O)N[C@@H]1c1ccc(C#N)nc1 [BAY-678]
inactive: residual activity [1] 76.9% | residual activity [2] 70.2% | residual activity [3] 100% | inhibition [4] 6.06% | inhibition [5] 50% | residual activity [6] 95.4% | residual activity [7] 100% | residual activity [8] 94.1% | residual activity [9] 100% | residual activity [10] 89.8% | residual activity [11] 89.9% | residual activity [12] 95% | residual activity [13] 90.6% | residual activity [14] 100% | residual activity [15] 96.4% | residual activity [16] 75% | residual activity [17] 86.1% | residual activity [18] 100% | residual activity [19] 100% | residual activity [20] 84.5% | residual activity [21] 78.8% | residual activity [22] 100% | residual activity [23] 100% | residual activity [24] 98.2% | residual activity [25] 98.4% | residual activity [26] 98.1% | residual activity [27] 92.4% | residual activity [28] 99.2% | residual activity [29] 94.3% | residual activity [30] 100% | residual activity [31] 100% | residual activity [32] 87.6% | residual activity [33] 88.2% | residual activity [34] 78.6% | residual activity [35] 100% | residual activity [36] 78.3% | residual activity [37] 74.5% | residual activity [38] 100% | residual activity [39] 100% | residual activity [40] 67.5% | residual activity [41] 90.8% | residual activity [42] 79.2% | residual activity [43] 73.2% | inhibition [44] 10.9% | residual activity [45] 100%

— ChEMBL document CHEMBL4507272 (2021)
